{
  "source": "patent US20120101057A1",
  "about": "“COMBINED THERAPY OF COLORECTAL CARCINOMA” (INSTYTUT FARMACEUTYCZNY, priority 2009, published 2012)",
  "key": {"[1]": {"test_system": "murine colorectal cancer C38", "assay": "tumour growth in mice with colorectal cancer C38 treated with 5-fluorouracil (1a)", "format": "in vivo, Mice of C57BL/6 strain"}, "[2]": {"test_system": "murine colorectal cancer MC38/EGFP", "assay": "burden of metastases in regional lymph nodes, MC38/EGFP fluorescence (1c)", "format": "in vivo, mice", "from_the_text": "Cancer cells of murine colorectal cancer MC38/EGFP (cells expressing a protein of green fluorescence) were implanted subcutaneously in an amount of 1×10^6 cells/mouse. […] Compounds were given subcutaneously, 3 times a week. […] Then on day 59 of experiment, lymph nodes from mice of remaining were taken for analysis. Using NightOWL II LB 983 apparatus, photographs of isolated lymph nodes were taken in order to visualize cancer cells in sites of metastases.\nIntensity of the measured fluorescence is related to a burden of metastases (the number of cells with fluorescence)."}, "colorectal cancer HT-29": {"test_system": "colorectal cancer HT-29", "assay": "tumour growth in mice with colorectal cancer HT-29 treated with 5-fluorouracil", "format": "in vivo"}, "[3]": {"assay": "calcium level in blood serum of mice treated with 5-FU and vitamin D analogues", "format": "in vivo, Mice of BALB/c strain", "settings": "BALB/c; 5-FU 50 mg/kg i.p. day 1; PRI-2191 2 or PRI-2205 10 μg/kg/day 3 times a week", "protocol": "Mice of BALB/c strain were treated with 5-FU given in a single administration, intraperitoneally on day 1 at a dose of 50 mg/kg. […] Calcium level was evaluated (Arsezano 3 method, Olympus AU400; Olympus America Inc., Melville, NY, USA) in blood serum of treated and control mice."}, "CaCo-2": {"test_system": "CaCo-2", "assay": "antiproliferative activity of 5-fluorouracil combined with vitamin D analogues in vitro, 120 h", "format": "cell-based, human", "parameters": "key to Type of reaction between vitamin D analogues and 5-fluorouracil: +: sub-additive effect; ++: additive effect; +++: synergistic effect; −: antagonism", "settings": "CaCo-2; analogue 100 nM + 5-fluorouracil 1 μg/ml; 120-hours exposure", "protocol": "(§1) After 24 h culture, the cells of large intestine carcinoma were treated simultaneously with calcitriol or vitamin D analogues and 5-fluorouracil for 120 hours. The final concentration of vitamin D analogues was 100 nM, and of 5-fluorouracil—-1 μg/ml or 0.1 μg/ml. Statistical analysis of the obtained results of inhibition of proliferation was carried out by analysis of percent of inhibition of proliferation in individual combinations of compounds.\n(§2) Hypothetical value was calculated according to a formula: […]\n(§3) wherein: % H—hypothetical inhibition of proliferation by combination of compounds [Vo]; % cyt—inhibition of proliferation by 5-Fu alone [%]; % vit—inhibition of proliferation by calcitriol or cholecalciferol analogue alone [%];\n(§4) Additive effect occurs when the experimental and hypothetical value are similar, sub-additive effect occurs when experimental value is lower than hypothetical value but above value for a cytostatic alone, and antagonistic action—when a value determined for a cytostatic used alone is above experimental value for combination of both compounds. [Peters G. J. i wsp.: Pharmacol Ther 2000, 87, 227-253]"}, "[4]": {"test_system": "murine colorectal carcinoma C38", "assay": "tumour growth in mice with murine colorectal carcinoma C38 treated with capecitabine", "format": "in vivo, Mice of C57BL/6 strain"}, "MC38/0": {"test_system": "MC38/0", "assay": "antiproliferative activity of 5-fluorouracil combined with vitamin D analogues in vitro, 120 h", "format": "cell-based, mouse", "parameters": "key: +: sub-additive effect; ++: additive effect; +++: synergistic effect; −: antagonism", "settings": "120-hours exposure", "protocol": "After 24 h culture, the cells of large intestine carcinoma were treated simultaneously with calcitriol or vitamin D analogues and 5-fluorouracil for 120 hours. […] Statistical analysis of the obtained results of inhibition of proliferation was carried out by analysis of percent of inhibition of proliferation in individual combinations of compounds.\nas §2, §3, §4"}, "HT-29": {"test_system": "HT-29", "assay": "antiproliferative activity of 5-fluorouracil combined with vitamin D analogues in vitro, 120 h", "format": "cell-based, human", "parameters": "key: +: sub-additive effect; ++: additive effect; +++: synergistic effect; −: antagonism", "settings": "analogue 100 nM + 5-fluorouracil 0.1 μg/ml, 120-hours exposure", "protocol": "as §1, §2, §3, §4"}, "LoVo": {"test_system": "LoVo", "assay": "antiproliferative activity of 5-fluorouracil combined with vitamin D analogues in vitro, 120 h", "format": "cell-based, human", "parameters": "key: +: sub-additive effect; ++: additive effect; +++: synergistic effect; −: antagonism", "settings": "analogue 100 nM + 5-fluorouracil 1 μg/ml, 120-hours exposure", "protocol": "as §1, §2, §3, §4"}, "[5]": {"assay": "body mass of mice under combined therapy", "format": "in vivo", "settings": "combination with 5-FU"}, "[6]": {"test_system": "murine colorectal cancer C38", "assay": "survival time and tumour growth in mice with colorectal cancer C38 treated with 5-FU (1b)", "format": "in vivo", "protocol": "Mice with colorectal cancer C38 were treated with 5-FU given in a single administration, intraperitoneally on day 1 at a dose of 75 mg/kg."}, "[7]": {"settings": "analogue combined with capecitabine"}},
  "data": [
    {"smiles": "C=C1/C(=C\\C=C2/CCC[C@]3(C)[C@@H]([C@H](C)CC[C@@H](O)C(C)C)CC[C@@H]23)C[C@@H](O)C[C@@H]1O", "note": "[PRI-2191, 1,24(R)-dihydroxycholekalciferol]", "values": [
      {"measurement": "TGI", "setting": "[1]; C38, 28 day of experiment", "result": 16, "unit": "%"},
      {"measurement": "Tumours MEAN ± SD", "setting": "[1]; C38, 28 day of experiment, 5-FU 150 mg/kg i.p., PRI-2191 2 ug/kg s.c., PRI-2205 10 μg/kg s.c.", "result": "0.88 ± 0.49", "unit": "g"},
      {"measurement": "volume of tumours C38, combination with 5-FU in comparison with 5-FU", "setting": "[1]; analogue combined with 5-FU", "result": "decreases in statistically significant manner volume of tumours also in comparison with 5-FU"},
      {"measurement": "volume of tumours C38 in comparison with control", "setting": "[1]; single agent", "result": "inhibits 38C tumours growth in the last four measurements"},
      {"measurement": "metastases in regional lymph nodes (intensity of fluorescence), combined treatment with 5-FU", "setting": "[2]; 5-FU 75 mg/kg i.p. with PRI-2191 1 μg/kg or PRI-2205 10 μg/kg s.c., day 59", "result": "increased anti-metastatic action"},
      {"measurement": "metastases in regional lymph nodes (fluorescence) versus control mice", "setting": "[2]; analogue only, day 50", "result": "did not differ significantly"},
      {"measurement": "TGI", "setting": "colorectal cancer HT-29; HT-29, 49 day of experiment", "result": 16, "unit": "%"},
      {"measurement": "Tumours MEAN ± SD", "setting": "colorectal cancer HT-29; HT-29, 49 day of experiment", "result": "2.19 ± 1.51", "unit": "g"},
      {"measurement": "HT-29 tumour mass, combination with 5-FU in comparison with 5-FU alone", "setting": "colorectal cancer HT-29; analogue combined with 5-FU", "result": "influences significantly also tumour mass in comparison with 5-FU alone"},
      {"measurement": "type of interaction in inhibition of HT-29 tumour growth", "setting": "colorectal cancer HT-29; analogue combined with 5-FU", "result": "synergism"},
      {"measurement": "HT-29 tumour mass in comparison with control", "setting": "colorectal cancer HT-29; single agent", "result": "did not influence tumour mass"},
      {"measurement": "calcium level in blood serum of mice", "setting": "[3]", "result": "calcium level increases in statistically significant degree"},
      {"measurement": "Type of reaction between vitamin D analogues and 5-fluorouracil", "setting": "CaCo-2", "result": "+++"},
      {"measurement": "Tumours MEAN ± SD", "setting": "[4]; C38, 18 day of experiment, KCY 250 mg/kg/day oral, PRI-2191 1, PRI-2205 10 μg/kg/day s.c.", "result": "0.75 ± 0.32", "unit": "g"},
      {"measurement": "tumour mass, combination with capecitabine in comparison with capecitabine alone", "setting": "[4]; [7]", "result": "influences significantly tumour mass in comparison with capecitabine alone"},
      {"measurement": "type of interaction in inhibition of tumour growth with capecitabine", "setting": "[4]; [7]", "result": "a synergistic effect is seen mainly in the last days of the experiment"},
      {"measurement": "tumour C38 mass in comparison with control", "setting": "[4]; single agent", "result": "does not influence tumour mass"},
      {"measurement": "Type of reaction between vitamin D analogues and 5-fluorouracil", "setting": "MC38/0; MC38/0, analogue 100 nM + 5-fluorouracil 0.1 μg/ml", "result": "+++"},
      {"measurement": "Type of reaction between vitamin D analogues and 5-fluorouracil", "setting": "MC38/0; analogue 100 nM + 5-fluorouracil 0.01 μg/ml, cell line of this column unclear (MC38/0 or CaCo-2)", "result": "+++"},
      {"measurement": "Type of reaction between vitamin D analogues and 5-fluorouracil", "setting": "HT-29", "result": "+++"},
      {"measurement": "Type of reaction between vitamin D analogues and 5-fluorouracil", "setting": "LoVo", "result": "+++"},
      {"measurement": "body mass of mice treated with 5-FU in combination with vitamin D analogue, versus 5-FU alone", "setting": "[5]", "result": "increased loss of body mass"},
      {"measurement": "ILS %", "setting": "[6]; C38, 5-FU 75 mg/kg i.p. day 1, PRI-2191 2, PRI-2205 10 μg/kg/day 3 times per week", "result": 52, "unit": "%"},
      {"measurement": "TGI (d20) %", "setting": "[6]; C38, day 20", "result": 44, "unit": "%"},
      {"measurement": "C38 tumour mass, combination with 5-FU in comparison with 5-FU", "setting": "[6]; analogue combined with 5-FU", "result": "in a statistically significant manner decreases tumour mass also in comparison with 5-FU"},
      {"measurement": "C38 tumour mass in comparison with control", "setting": "[6]; single agent", "result": "inhibits C38 tumour growth only in two last measurements"}
    ]}
  ]
}
